Experimental data as given in publication PMC11857211, “Bioprospecting Bioactive Peptides in Halobatrachus didactylus Body Mucus: From In Silico Insights to Essential In Vitro Validation” (Marine Drugs, 2025).
“Also recorded” adds a separate entry of the source.

Assays:
S. aureus biofilm = assay: Antibiofilm activity (crystal violet); format: cell-based, Staphylococcus aureus; settings: 24 h incubation, HdKTLR 262, HdKNL 262, HdPPP 130, HdVLPN 204, HdLPN 227 µg/mL, OD 595 nm
Description: The antibiofilm activity was determined according to the following method, with some modifications. Taking the microplate from 24 h inhibition growth curves, the contents of the plate were discarded, and each well was carefully washed three times with distilled water to remove non-adherent cells. The adhered cells were fixed with 150 µL of methanol for 10 min. Then, the methanol was discarded, the plates were left to dry, and then, the fixed biofilm was stained with […] of crystal violet (CV) for 10 min. Excess stain was rinsed out by placing the plate under slow-running tap water. Once the plates were air-dried, the dye attached to the adherent cells was resolubilized by adding 150 µL of 33% (v/v) glacial acetic acid and agitated for 15 min. The optical density of the solution obtained was measured at 595 nm using a multidetection plate reader (Synergy H1, Winooski, VT, USA). All tests were carried out in duplicate, with a positive control using an inoculated culture in MH broth and a negative control using MH broth only. The results are presented as the percentage of biofilm formation, calculated according to the following formula, where the OD of the sample is the measured OD of the inoculated medium mixed with the peptides, and the OD of the positive control is the OD measured for the positive control.% Biofilm formation = (ODsample/ODpositive control) × 100(1)

[1] = High-performance size exclusion chromatography (HPSEC): molecular size and aggregation; format: physicochemical; settings: for Aggregation behaviour in HPSEC: Agilent AdvanceBio SEC 130 Å, isocratic, buffers 344 mM or 700 mM at pH 3.0, 5.0, 7.0, PDA detection
Description: The HPSEC column was eluted with 344 mM of a phosphate buffer at pH 7.0, replicating the conditions used to analyze the mucus peptide fraction in our previous article. During the analysis, we observed the formation of peptide aggregates, specifically oligomers, including dimers, trimers, and tetramers. Various buffer conditions were tested to determine if a particular pH and ionic strength would enable the peptides to expose their theoretical molecular weights, as specified in the GenScript technical datasheet. Since seawater typically has an ionic strength of approximately 700 mM [10], buffers with this ionic strength were tested at pH 3.0, 5.0, and 7.0, as well as at 344 mM of ionic strength.
The peptides’ molecular size validation was determined using high-performance size exclusion chromatography (HPSEC). An Agilent AdvanceBio SEC column (Agilent Technologies, London, UK), 2.7 µm in particle size, 130 Å in pore size, and 7.8 in inner diameter × 300 mm in length, was used. The column was eluted isocratically using various buffers with different pH and ionic strengths, namely, 344 mM at pH 7 (0.15 M of a phosphate buffer with NaH2PO4), 700 mM at pH 7 (0.15 M of a phosphate buffer with NaH2PO4 and NaCl), 344 mM at pH 5 (0. 15 M of an acetate buffer with acetic acid and NaCl), 700 mM at pH 5 (0.15 M of an acetate buffer with acetic acid and NaCl), 344 mM at pH 3 (0.05 M of a formate buffer with fomic acid and NaCl), and 700 mM at pH 3 (0.05 M of a formate buffer with formic acid and NaCl) at a flow rate of 1 mL/min. The sample injection volume was 10 µL. The instrument used was Waters 2690 with a photodiode array detector (PDA 190–600 nm). The software Empower 3 was used for data collection. To determine the molecular weights of the resulting chromatogram peaks, a calibration curve was made with the following protein standards: Ovalbumin (44,300 Da), Myoglobin (17,600 Da), Cytochrome C (12,327 Da), Aprotinin (6511 Da), Neurotensin (1672 Da), Angiotensin-II (1040 Da), Tyr-Phe dipeptide (328.4 Da), and L-tryptophan (204 Da).

Lactobacillus species = assay: Probiotic growth curves; format: cell-based; settings: L. acidophilus Ki, La5, L. plantarum 299V, L. casei, L. rhamnosus RII; HdKTLR 262, HdKNL 262, HdVLPN 204, HdLPN 227 µg/mL; MRS broth, 24 h, 37 °C, OD 650 nm
Description: (§1) The effect of the peptides on probiotics was evaluated using the following probiotic Lactobacillus and Bifidobacterium species: L. acidophilus Ki (LAS), L. acidophilus La5, L. casei L26, L. plantarum 299V, L. rhamnosus RII, B. longum BG3 B. animalis spp. lactis BB12, B. animalis BLC, and B. animalis Bo. All the assays were performed using MRS broth supplemented with 0.5 g/L of L-cysteine. The peptides were combined with a 1/10 ratio of inoculum, containing 2% (v/v) of the probiotic and cultured for […] in MRS broth. For the positive control, deionized water was used instead of the peptides, with a 2% inoculum, while deionized water with MRS served as the negative control. Peptide wells with Bifidobacterium were sealed with paraffin to assure anaerobiosis conditions. The bacterial growth was monitored at 650 nm for 24 h at 37 °C in a microplate reader (Multiskan GO, Thermo Scientific, Finland), and the optical density (OD) was measured hourly. Growth curves were created by transforming the absorbance values in natural logarithms ln (Abs).

Bifidobacterium species = assay: Probiotic growth curves; format: cell-based; settings: B. longum BG3, B. animalis Bo, BB-12, BLC, B. breve; HdKTLR 262, HdKNL 262, HdVLPN 204, HdLPN 227 µg/mL; MRS broth, 24 h, 37 °C, OD 650 nm
Description: as §1

[2] = ORAC assay of peptide mixed with mucus (synergy); parameters: Increase in ORAC antioxidant activity of peptide combined with mucus versus sum of the individual systems: concentration or dose not given beside the values; settings: for Increase in ORAC antioxidant activity of peptide combined with mucus versus sum of the individual systems: one part peptide to four parts mucus; for ORAC of the peptide alone in the synergy experiment: one part peptide to four parts phosphate buffer, Figure 3 captive, Figure 4 wild series
Description: The ORAC assay followed the protocol outlined by Coscueta et al.. […] Fluorescence was monitored for 80 min at 1 min intervals. Each sample, standard, blank, or control, analysis was duplicated. The final ORAC values were expressed as µmol TE/µmol of peptide for the peptides and µmol TE /mg of protein for the digestion retentate and permeate contents. The synergistic interaction between the mucus and peptides was performed by mixing the peptides with mucus at a ratio of one part peptide to four parts mucus. In addition, control analyses were performed by mixing one part of the phosphate buffer with four parts of the mucus and another with one part of the peptide to four parts of the phosphate buffer. The mixtures were then tested in the ORAC assay. The final ORAC values were expressed as µM TE.

Sequence	Biofilm formation versus control (S. aureus biofilm)	Aggregation behaviour in HPSEC [1]	Effect on probiotic growth (Lactobacillus species)	Effect on probiotic growth (Bifidobacterium species)	Increase in ORAC antioxidant activity of peptide combined with mucus versus sum of the individual systems ([2]; captive mucus sample) [%]	ORAC of the peptide alone in the synergy experiment [2]	Molecular weight observed by HPSEC (aggregate) ([1]; buffers with ionic strengths of 344 mM and 700 mM at pH 7.0 and pH 5.0, theoretical molecular weight 1588.4 Da)	Increase in ORAC antioxidant activity of peptide combined with mucus versus sum of the individual systems ([2]; wild mucus sample) [%]
DPPNPKNL [HdKNL]	no significant differences	aggregate formation increased at higher pH conditions; also recorded: aggregation was still observed	did not inhibit the growth	did not inhibit the growth	126	no antioxidant activity was detected	–	–
EDNSELGQETPTLR [HdKTLR]	no significant differences	formation of aggregates into oligomers; also recorded: pronounced aggregation	did not inhibit the growth	did not inhibit the growth	–	no antioxidant activity was detected	approximately 7836 Da	–
PFPGPLPN [HdLPN]	no significant differences	forming only dimers; also recorded: aggregation was still observed	did not inhibit the growth	did not inhibit the growth	51	–	–	54
VYPFPGPLPN [HdVLPN]	no significant differences	degree of polymerization was less prominent than in the other peptides; also recorded: aggregation was still observed	did not inhibit the growth	did not inhibit the growth	31	–	–	44
